Key:
[1] = Metabolic stability in human intestinal microsomes; format: in vitro ADME; settings: human intestinal microsomes 0.2 mg/mL, with NADPH, 1 μM, 37 °C
Experimental: (§1) Stability of Compound-3 was first investigated in microsomal systems from human and rat. The microsomal protein and Compound-3 concentrations were optimized to 0.2 mg/mL and 1 µM, respectively. Before the start of the incubation, reaction mixtures containing phosphate buffer (100 mM, pH 7.4), microsomes and Compound-3 in a total volume of 50 µL were warmed up at 37 °C for 10 min. The reaction was started with the addition of NADPH at a final concentration of 1 mM. Incubations were terminated at a specified time with the addition of 100 µL ice-cold acetonitrile containing the internal standard. The samples were then centrifuged, and aliquots of 10 µL of the supernatants were transferred into liquid chromatography-tandem mass spectrometry (LC-MS/MS) for the analysis of Compound-3 levels.

[2] = Metabolic stability in rat intestinal microsomes; format: in vitro ADME; settings: rat intestinal microsomes 0.2 mg/mL, with NADPH, 1 μM, 37 °C
Experimental: as §1

[3] = Stability in human plasma; format: in vitro ADME; settings: 1 μM, 37 °C
Experimental: For stability testing in plasma, the reaction was started with the addition of Compound-3 (1 µM). At specified time points, aliquots of 25 µL of the reaction mixtures were transferred into 100 μL ice-cold acetonitrile containing the internal standard. The samples were then centrifuged, and aliquots of 10 µL of the supernatants were transferred onto LC-MS/MS for the analysis of Compound-3 levels.

[4] = Metabolite identification by UPLC/Triple TOF MS in rat intestinal microsomes; format: in vitro ADME; set-up: key: √: metabolites were detected by high-resolution mass spectrometry; settings: Compound-3 10 μM, NADPH, 60 min, HRMS
[5] = target: T1, CYP3A4 (Homo sapiens, UniProt P08684); assay: Reaction phenotyping with recombinant CYP3A4; format: in vitro ADME; settings: recombinant CYP3A4 50 nM, 1 μM, NADPH
T1 construct: purchased Corning Gentest
T1 sequence (P08684 whole entry): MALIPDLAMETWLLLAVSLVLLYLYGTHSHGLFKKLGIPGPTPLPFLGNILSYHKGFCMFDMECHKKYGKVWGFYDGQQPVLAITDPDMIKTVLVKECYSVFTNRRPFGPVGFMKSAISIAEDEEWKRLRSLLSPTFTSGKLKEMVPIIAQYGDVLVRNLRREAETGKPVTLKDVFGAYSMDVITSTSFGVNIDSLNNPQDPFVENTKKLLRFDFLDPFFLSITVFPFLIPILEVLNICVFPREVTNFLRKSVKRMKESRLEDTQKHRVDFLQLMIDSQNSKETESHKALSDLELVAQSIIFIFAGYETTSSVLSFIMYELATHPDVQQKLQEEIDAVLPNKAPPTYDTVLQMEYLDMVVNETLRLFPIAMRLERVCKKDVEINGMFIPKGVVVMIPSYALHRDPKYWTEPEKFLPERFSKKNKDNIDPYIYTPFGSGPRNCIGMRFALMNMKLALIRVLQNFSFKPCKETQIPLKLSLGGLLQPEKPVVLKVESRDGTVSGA
Experimental: (§2) Compound-3 was incubated separately with human cDNA-expressed cytochrome P450s (CYP1A2, CYP2B6, CYP2C8, CYP2C9, CYP2C19, CYP2D6, CYP3A4, CYP4A11, CYP4F2 and CYP4F3). The incubation mixtures contained individual CYP isoenzymes (50 nM), potassium phosphate buffer (100 mM, pH 7.4), NADPH (1 mM), and Compound-3 (1 µM). The final volume of the incubation mixture was 50 µL. Before the start of the incubation, reaction mixtures were warmed up at 37 °C for 10 min. The reaction was initiated with the addition of NADPH and the incubations were performed at 37 °C in a water bath. After 60 min of incubation, the reactions were terminated with an equal volume of ice-cold acetonitrile containing the internal standard. Control samples without NADPH but substrates were included. The samples were then centrifuged and aliquots of 10 μL of the supernatants were transferred onto LC-MS/MS for the analysis of Compound-3 and M4 (carboxylic acid) levels.

[6] = test system: CYP1A2, CYP2B6, CYP2C8, CYP2C9, CYP2C19, CYP2D6, CYP4A11 and CYP4F3; assay: Reaction phenotyping with the rest of the recombinant CYP isozymes; format: in vitro ADME, human; settings: 50 nM, 1 μM, NADPH
Experimental: as §2

[7] = target: T2, CYP4F2 (Homo sapiens, UniProt P78329); assay: CYP4F2-mediated drug interaction (inhibition of CYP4F2); format: in vitro ADME; settings: substrate pafuramidine 1.5 μM, CYP4F2 10 nM, 5 min, DB775 formation; read-out: IC50, inhibition of CYP4F2 mediated metabolism of pafuramidine
T2 construct: purchased Corning Gentest
T2 sequence (P78329 5-520): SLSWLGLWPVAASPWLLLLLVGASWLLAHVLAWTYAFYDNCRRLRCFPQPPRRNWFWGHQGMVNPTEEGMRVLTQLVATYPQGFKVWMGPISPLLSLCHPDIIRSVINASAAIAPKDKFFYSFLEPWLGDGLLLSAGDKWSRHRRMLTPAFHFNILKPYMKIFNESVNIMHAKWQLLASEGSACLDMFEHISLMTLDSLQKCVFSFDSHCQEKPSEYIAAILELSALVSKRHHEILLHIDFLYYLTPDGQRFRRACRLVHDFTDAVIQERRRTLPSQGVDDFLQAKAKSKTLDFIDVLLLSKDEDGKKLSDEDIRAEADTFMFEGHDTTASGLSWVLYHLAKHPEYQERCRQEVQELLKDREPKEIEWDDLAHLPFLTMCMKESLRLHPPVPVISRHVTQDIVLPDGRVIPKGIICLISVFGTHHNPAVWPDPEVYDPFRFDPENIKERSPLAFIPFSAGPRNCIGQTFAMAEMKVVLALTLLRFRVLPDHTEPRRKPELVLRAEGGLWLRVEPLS
Experimental: CYP4F2-mediated drug interactions were examined in two separate setting: pafuramidine as the substrate and Compound-3 as the inhibitor; and Compound-3 as the substrate and pafuramidine as the inhibitor. The reaction system contained 10 nM CYP4F2, 100 mM phosphate buffer (pH 7.4), 1 mM NADPH, and substrate (pafuramidine 1.5 μM or Compound-3 1 μM). Inhibitor (Compound-3 or pafuramidine) concentrations ranged from 0 to 10,000 nM. The incubation time was 5 min for pafuramidine and 10 min for Compound-3. Incubation temperature was 37 °C. LC-MS/MS analysis was performed as described above for the levels of DB775 or M4 (carboxylic acid metabolite of Compound-3).

[8] = test system: H460 tumor xenograft (non-small cell lung cancer); settings: cited from earlier work
[9] = test system: human equilibrative transporter 1 (hENT1); settings: cited from earlier work

Structure (SMILES): CCCCCCCCCCCCCCCCCCOCCOP(=O)(O)OCC1OC(n2ccc(N)nc2=O)C(F)(F)C1O (stereo not drawn) [Compound-3]
- disappearance after 60 min incubation [1]: > 50%
- disappearance in 60 min [2]: ~ 20%
- disappearance in plasma [3]: did not display noticeable disappearance
- detected in matrix RIM [4]: √
- metabolism of Compound-3 by CYP isozyme [5]: moderate metabolic activity
- metabolism of Compound-3 by CYP isozyme [6]: did not participate
- IC50 [7]: 100 nM
- oral activity in tumor xenograft model [8]: orally active
- cellular uptake limitation by hENT1 [9]: low propensity to be limited

From PMC6100113, “Involvement of CYP4F2 in the Metabolism of a Novel Monophosphate Ester Prodrug of Gemcitabine and Its Interaction Potential In Vitro” (Molecules : A Journal of Synthetic Chemistry and Natural …, 2018)
